The values below come from patent US20090238808A1, “Process for the identification of novel enzyme interacting compounds” (priority 2005, published 2009).

Assay [1] deals with protein kinase C beta (Homo sapiens, UniProt P05771). Put plainly: In-lysate competition binding with kinobeads, Jurkat lysate, iTRAQ MS. The following applies: for Relative Intensity, PKCb (PRKCB1): DMSO control = 1.0. As to the method: (§1) This example illustrates competition binding in cell lysates (see particularly the third aspect of the invention). A test compound, Bisindolylmaleimide VIII (Bis VIII, a well known kinase inhibitor; Davies et al., 2000. Specificity and mechanism of action of some commonly used protein kinase inhibitors. Biochemical Journal 351 (Pt 1): 95-105) was added to a cell lysate thereby allowing the test compound to bind to the target proteins in the lysate. Then the lysate was contacted with the kinobeads affinity matrix to capture remaining free target proteins. The proteins bound to the kinobeads matrix were then eluted with detergent-containing buffer, separated on a SDS-polyacryamide gel and analyzed by immunodetection (Western blots) or mass spectrometry detection.
Chain of protein kinase C beta (P05771 whole entry): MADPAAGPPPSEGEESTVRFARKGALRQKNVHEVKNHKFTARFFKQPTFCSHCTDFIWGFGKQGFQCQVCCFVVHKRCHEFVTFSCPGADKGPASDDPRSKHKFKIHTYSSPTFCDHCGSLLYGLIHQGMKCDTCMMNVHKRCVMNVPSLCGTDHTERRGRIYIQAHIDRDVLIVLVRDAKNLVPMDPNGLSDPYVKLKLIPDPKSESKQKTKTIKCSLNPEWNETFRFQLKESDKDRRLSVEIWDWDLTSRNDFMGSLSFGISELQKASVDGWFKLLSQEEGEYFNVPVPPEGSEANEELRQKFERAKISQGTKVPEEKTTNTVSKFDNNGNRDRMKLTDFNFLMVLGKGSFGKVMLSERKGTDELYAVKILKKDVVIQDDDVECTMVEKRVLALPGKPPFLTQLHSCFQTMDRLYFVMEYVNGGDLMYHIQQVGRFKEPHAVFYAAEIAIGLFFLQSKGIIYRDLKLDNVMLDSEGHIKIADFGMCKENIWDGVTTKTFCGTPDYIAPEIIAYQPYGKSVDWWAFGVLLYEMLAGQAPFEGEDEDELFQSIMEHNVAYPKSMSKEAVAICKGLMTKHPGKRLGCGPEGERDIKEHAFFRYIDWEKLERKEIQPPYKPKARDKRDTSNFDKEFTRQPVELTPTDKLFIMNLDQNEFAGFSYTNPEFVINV
(§2) For the quantitative detection of proteins by mass spectrometry proteins were eluted from the affinity matrix and subsequently separated by SDS-Polyacrylamide gel elecrophoresis. Suitable gel areas were cut out and subjected to in-gel proteolytic digestion with trypsin.
(§3) Four tryptic digest samples (corresponding to three different Bis VIII concentrations in the lysate and one DMSO control) were labeled with ITRAQ reagents and the combined samples were analyzed in a single LC-MS/MS mass spectrometry analysis followed by peak quantification in the MS/MS spectrum (Ross et al., 2004. Multiplexed protein quantitation in Saccharomyces cerevisiae using amine-reactive isobaric tagging reagents. Mol. Cell. Proteomics 3(12): 1154-1169). […] Binding curves for individual kinases are shown (FIG. 5). The relative intensity 50 (RI50) values representing the affinity of kinase-compound pairs are similar to IC50 values reported by kinase enzyme assays (Davies et al., 2000. Specificity and mechanism of action of some commonly used protein kinase inhibitors. Biochemical Journal 351 (Pt 1): 95-105).
(§4) Aliqots of Jurkat lysate (10 mg protein) were incubated with different Bis VIII concentrations for one hour at 4° C. (0.025 μM, 0.074 μM, 0.22 μM, 0.67 μM, 2.0 μM and 6.0 μM final concentration of Bis VIII). To this end Bis VIII solutions were prepared in 100% DMSO as solvent that corresponded to 200 fold desired final Bis VIII concentration (Bis VIII from Alexis Biochemicals cat. number ALX 270-056). Five μl of these solutions were added to 1 ml of lysate resulting in the indicated final concentrations. For a control experiment 5 μl of DMSO without Bis VIII were used.
(§5) To each preincubated lysate sample 40 μl of kinobeads (see example 1) were added and incubated for one hour at 4° C. During the incubation the tubes were rotated on an end-over-end shaker (Roto Shake Genie, Scientific Industries Inc.). Beads were collected by centrifugation, transfered to Mobicol-columns (MoBiTech 10055) and washed with 10 ml 1×DP buffer containing 0.4% NP40 detergent, followed by a wash with 5 ml 1×DP buffer with 0.2% NP40. To elute the bound proteins, 100 μl 2×SDS sample buffer was added, the column was heated for 30 minutes at 50° C. and the eluate was transferred to a microfuge tube by centrifugation. Proteins were then separated by SDS-Polyacrylamide electrophoresis (SDS-PAGE). The composition and preparation of buffers is described in example 2.
(§6) The peptide extracts of samples treated with different concentrations of the test compound (0.074 μM, 0.22 μM and 0.67 μM Bis VIII) and the solvent control (0.5% DMSO) were treated with different isomers of the isobaric tagging reagent (iTRAQ Reagents Multiplex Kit, part number 4352135, Applied Biosystems, Foster City, Calif., USA). The iTRAQ reagents are a set of multiplexed, amine-specific, stable isotope reagents that can label all peptides in up to four different biological samples enabling simultaneous identification and quantitation of peptides. The iTRAQ reagents were used according to instructions provided by the manufacturer. […]

Assay [2] has as its target T1, Glycogen Synthase Kinase 3 beta (Homo sapiens, UniProt P49841).
T1 construct: Aliqots of Jurkat lysate (10 mg protein) were incubated with different Bis VIII concentrations; endogenous in cells; host or cells: Jurkat clone E6-1 lysate
The assay is described as above. The following applies: for Relative Intensity, GSK3B: DMSO control = 1.0. As to the method:
as §1, §2, §3, §4, §5, §6

In assay [3] the target is T2, Glycogen Synthase Kinase 3 alpha (Homo sapiens, UniProt P49840).
T2 construct: endogenous in cells; host or cells: Jurkat clone E6-1 lysate
T2 sequence (P49840 whole entry): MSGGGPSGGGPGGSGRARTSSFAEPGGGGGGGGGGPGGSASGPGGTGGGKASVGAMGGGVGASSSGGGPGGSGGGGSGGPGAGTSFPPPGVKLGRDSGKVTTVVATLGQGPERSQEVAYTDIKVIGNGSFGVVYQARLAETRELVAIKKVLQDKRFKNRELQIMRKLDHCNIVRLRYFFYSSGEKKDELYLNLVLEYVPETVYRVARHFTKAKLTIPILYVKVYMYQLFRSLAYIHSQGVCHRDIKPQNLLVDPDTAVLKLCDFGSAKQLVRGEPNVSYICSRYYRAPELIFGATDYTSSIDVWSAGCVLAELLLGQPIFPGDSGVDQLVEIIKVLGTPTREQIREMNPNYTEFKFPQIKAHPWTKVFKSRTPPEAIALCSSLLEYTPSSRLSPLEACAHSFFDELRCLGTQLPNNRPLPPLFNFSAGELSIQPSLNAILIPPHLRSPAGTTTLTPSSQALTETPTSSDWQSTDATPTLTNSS
Described as above. The following applies: for Relative Intensity, GSK3A: DMSO control = 1.0. As to the method: as §1, §2, §3, §4, §5, §6

Assay [4] deals with T3, protein kinase C alpha (Homo sapiens, UniProt P17252).
T3 construct: Aliqots of Jurkat lysate (10 mg protein) were incubated with different Bis VIII concentrations; endogenous in cells; host or cells: Jurkat clone E6-1 lysate
Described as above. The following applies: for Relative Intensity, PKCa (PRKCA): DMSO control = 1.0. As to the method:
as §1, §2, §3, §4, §5, §6

Assay [5] concerns the target T4, GSK3beta (Homo sapiens, UniProt P49841).
T4 construct: Aliqots of Jurkat lysate (10 mg protein) were incubated with different Bis VIII concentrations; endogenous in cells; host or cells: Jurkat clone E6-1 lysate
Put plainly: In-lysate competition binding with kinobeads, Jurkat lysate, Western blot. The note with it: Jurkat lysate preincubated with 0.025-6.0 μM compound. As to the method: as §1
(§7) For Western blot analysis proteins bound to the affinity matrix were eluted from the affinity matrix and subsequently separated by SDS-Polyacrylamide gel elecrophoresis and transferred to a blotting membrane. Individual kinases were detected with specific antibodies against GSK3alpha, GSK3beta and ITK (FIG. 4A). […] For GSK3beta the signal was quantified and plotted against the Bis VIII concentration added to the cell lysate (FIG. 4B).
as §4
(§8) To each preincubated lysate sample 40 μl of kinobeads (see example 1) were added and incubated for one hour at 4° C. During the incubation the tubes were rotated on an end-over-end shaker (Roto Shake Genie, Scientific Industries Inc.). […]

Assay [6] addresses T5, ITK (Homo sapiens, UniProt Q08881).
T5 construct: Aliqots of Jurkat lysate (10 mg protein) were incubated with different Bis VIII concentrations; endogenous in cells; host or cells: Jurkat clone E6-1 lysate
The description is as above. The following applies: Jurkat lysate preincubated with 0.025-6.0 μM compound. As to the method:
as §1, §7, §4, §8

Assay [7] concerns the target T6, GSK3alpha (Homo sapiens, UniProt P49840).
T6 construct: Aliqots of Jurkat lysate (10 mg protein) were incubated with different Bis VIII concentrations; endogenous in cells; host or cells: Jurkat clone E6-1 lysate
Described as above. The note with it: Jurkat lysate preincubated with 0.025-6.0 μM compound. As to the method: as §1, §7, §4, §8

The target of assay [8] is T7, proteins captured on kinobeads from Jurkat cell lysate (Homo sapiens, UniProt P45983).
T7 construct: endogenous in cells; host or cells: Jurkat clone E6-1 lysate
T7 sequence (P45983 whole entry): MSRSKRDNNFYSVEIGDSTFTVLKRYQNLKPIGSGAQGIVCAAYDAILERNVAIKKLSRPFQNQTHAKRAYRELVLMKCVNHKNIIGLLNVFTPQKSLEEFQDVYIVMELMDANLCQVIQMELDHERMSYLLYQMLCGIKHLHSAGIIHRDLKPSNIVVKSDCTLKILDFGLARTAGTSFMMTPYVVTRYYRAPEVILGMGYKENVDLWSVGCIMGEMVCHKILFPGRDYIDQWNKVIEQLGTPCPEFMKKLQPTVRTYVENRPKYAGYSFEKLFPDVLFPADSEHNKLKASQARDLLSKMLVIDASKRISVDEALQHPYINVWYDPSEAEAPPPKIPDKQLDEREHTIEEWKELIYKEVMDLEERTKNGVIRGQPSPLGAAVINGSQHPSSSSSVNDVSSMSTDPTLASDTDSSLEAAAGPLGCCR
As to the kind of experiment: In-lysate competition binding with kinobeads, Jurkat lysate, iTRAQ MS, relative intensity of identified proteins (Table 22). The following applies: DMSO control = 1.0. As to the method: as §1, §2, §3, §4, §5, §6

The target in assay [9] is T8, proteins captured on kinobeads from Jurkat cell lysate (Homo sapiens, UniProt Q9H0K1).
T8 construct: endogenous in cells; host or cells: Jurkat clone E6-1 lysate
T8 sequence (Q9H0K1 whole entry): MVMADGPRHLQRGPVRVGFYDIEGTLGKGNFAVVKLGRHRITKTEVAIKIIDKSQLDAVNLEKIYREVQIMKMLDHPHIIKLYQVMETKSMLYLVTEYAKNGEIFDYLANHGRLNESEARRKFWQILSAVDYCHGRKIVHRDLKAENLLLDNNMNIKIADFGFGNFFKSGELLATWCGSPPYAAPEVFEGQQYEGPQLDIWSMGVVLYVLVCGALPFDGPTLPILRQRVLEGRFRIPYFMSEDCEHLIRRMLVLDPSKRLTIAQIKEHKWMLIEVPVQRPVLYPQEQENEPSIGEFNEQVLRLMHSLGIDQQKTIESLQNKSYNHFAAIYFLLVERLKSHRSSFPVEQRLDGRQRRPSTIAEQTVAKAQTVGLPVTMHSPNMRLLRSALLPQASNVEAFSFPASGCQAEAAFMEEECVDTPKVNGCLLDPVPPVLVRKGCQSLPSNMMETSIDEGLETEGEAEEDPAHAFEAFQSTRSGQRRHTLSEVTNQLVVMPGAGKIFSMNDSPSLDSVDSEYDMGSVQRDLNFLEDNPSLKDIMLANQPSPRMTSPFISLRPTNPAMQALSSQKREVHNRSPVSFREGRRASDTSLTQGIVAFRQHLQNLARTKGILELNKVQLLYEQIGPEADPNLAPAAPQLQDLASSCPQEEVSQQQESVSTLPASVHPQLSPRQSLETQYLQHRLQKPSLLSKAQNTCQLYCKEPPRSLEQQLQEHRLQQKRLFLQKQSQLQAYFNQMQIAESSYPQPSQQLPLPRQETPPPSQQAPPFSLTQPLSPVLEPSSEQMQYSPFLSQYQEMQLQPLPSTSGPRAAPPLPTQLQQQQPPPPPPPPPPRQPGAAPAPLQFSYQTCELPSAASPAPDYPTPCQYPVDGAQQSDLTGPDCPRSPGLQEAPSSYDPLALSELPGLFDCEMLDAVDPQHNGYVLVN
The description is as above. The following applies: DMSO control = 1.0. As to the method: as §1, §2, §3, §4, §5, §6

The target in assay [10] is T9, proteins captured on kinobeads from Jurkat cell lysate (Homo sapiens, UniProt P28482).
T9 construct: endogenous in cells; host or cells: Jurkat clone E6-1 lysate
T9 sequence (P28482 whole entry): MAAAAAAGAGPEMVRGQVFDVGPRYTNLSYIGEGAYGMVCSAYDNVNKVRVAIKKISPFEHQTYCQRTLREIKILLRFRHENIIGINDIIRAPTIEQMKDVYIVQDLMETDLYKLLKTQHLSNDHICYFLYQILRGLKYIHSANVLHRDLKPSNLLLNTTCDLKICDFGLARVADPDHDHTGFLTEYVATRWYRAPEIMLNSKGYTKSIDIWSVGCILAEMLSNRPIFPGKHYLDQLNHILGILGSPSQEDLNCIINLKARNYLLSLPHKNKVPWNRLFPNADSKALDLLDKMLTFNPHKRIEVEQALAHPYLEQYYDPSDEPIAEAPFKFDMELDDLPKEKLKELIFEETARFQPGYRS
Described as above. The following applies: DMSO control = 1.0. As to the method: as §1, §2, §3, §4, §5, §6

T1 sequence (P49841 whole entry): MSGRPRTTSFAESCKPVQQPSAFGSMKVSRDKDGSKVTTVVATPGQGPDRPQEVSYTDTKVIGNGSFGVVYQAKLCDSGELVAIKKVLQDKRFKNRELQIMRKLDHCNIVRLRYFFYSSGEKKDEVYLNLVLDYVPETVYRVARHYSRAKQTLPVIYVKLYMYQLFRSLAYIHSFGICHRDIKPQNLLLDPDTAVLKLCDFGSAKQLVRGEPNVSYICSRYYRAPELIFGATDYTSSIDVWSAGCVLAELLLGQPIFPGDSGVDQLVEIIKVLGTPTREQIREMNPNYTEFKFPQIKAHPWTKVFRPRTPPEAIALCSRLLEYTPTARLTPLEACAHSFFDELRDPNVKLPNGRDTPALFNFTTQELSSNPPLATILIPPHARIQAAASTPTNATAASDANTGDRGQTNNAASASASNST
T6 sequence (P49840 whole entry): as the sequence (P49840 whole entry) above
T4 sequence (P49841 whole entry): as the sequence (P49841 whole entry) above
T5 sequence (Q08881 whole entry): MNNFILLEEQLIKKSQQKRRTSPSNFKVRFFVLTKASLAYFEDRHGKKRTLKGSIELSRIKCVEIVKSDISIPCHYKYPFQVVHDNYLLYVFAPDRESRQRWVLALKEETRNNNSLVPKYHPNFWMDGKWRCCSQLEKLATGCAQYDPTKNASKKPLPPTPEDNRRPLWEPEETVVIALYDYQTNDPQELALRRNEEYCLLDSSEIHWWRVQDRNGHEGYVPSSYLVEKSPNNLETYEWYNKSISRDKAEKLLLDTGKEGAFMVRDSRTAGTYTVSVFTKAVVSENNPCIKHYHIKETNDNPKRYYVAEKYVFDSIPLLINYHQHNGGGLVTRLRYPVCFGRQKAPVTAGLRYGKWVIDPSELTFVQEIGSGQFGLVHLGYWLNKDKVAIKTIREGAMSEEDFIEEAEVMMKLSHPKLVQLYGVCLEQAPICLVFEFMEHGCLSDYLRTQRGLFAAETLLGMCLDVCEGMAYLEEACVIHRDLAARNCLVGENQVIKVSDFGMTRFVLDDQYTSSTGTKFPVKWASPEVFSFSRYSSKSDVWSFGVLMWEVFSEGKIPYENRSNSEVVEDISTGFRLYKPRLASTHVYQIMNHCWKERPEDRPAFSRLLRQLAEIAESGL

As to `Cn1cc(C2=C(c3cn(CCCN)c4ccccc34)C(=O)NC2=O)c2ccccc21` [Bis VIII, Bisindolylmaleimide VIII], the figures for the “Relative Intensity, PKCb (PRKCB1)” value in [1] (0.074 uM in lysate) and in [1] (0.67 uM in lysate) were 0.29 and 0.17, respectively. Besides, the IC50 was 21.5 nM in [1] (Jurkat cell lysate, concentration at which relative intensity of the MS signal is 50% of DMSO control, read-out: RI50 (PKCb)); 95 nM in [2] (Jurkat cell lysate, concentration at which relative intensity of the MS signal is 50% of DMSO control, read-out: RI50 (GSKb)); 72.7 nM in assay [3] (Jurkat cell lysate, concentration at which relative intensity of the MS signal is 50% of DMSO control, read-out: RI50 (GSKa)); 12.2 nM in assay [4] (Jurkat cell lysate, concentration at which relative intensity of the MS signal is 50% of DMSO control, read-out: RI50 (PKCa)). For the same molecule, the “Relative Intensity, GSK3B” value in assay [2] (0.074 uM in lysate) was found to be 0.54; in [2] (0.67 uM in lysate), 0.28. The “Relative Intensity, GSK3A” value in assay [3] (0.074 uM in lysate) amounted to 0.50; in assay [3] (0.67 uM in lysate) it was 0.20. Besides, the “Relative Intensity, PKCa (PRKCA)” value in [4] (0.074 uM in lysate) is listed as 0.25; in assay [4] (0.67 uM in lysate) it was 0.18. Also, the “binding of GSK3beta to kinobeads, Western blot” value in assay [5] is “prevented binding”. Further, the “binding of ITK to kinobeads, Western blot” value in [6] is listed as “not binding of ITK”. The “binding of GSK3alpha to kinobeads, Western blot” value in [7] is “prevented binding”. In addition, the entries for the “Relative Intensity, JNK1 (MAPK8)” value in assay [8] (0.074 uM in lysate) and in [8] (0.67 uM in lysate) were 0.91 and 0.83, respectively. Moreover, the figures for the “Relative Intensity, QIK (SNF1LK2)” value in assay [9] (0.074 uM in lysate) and in assay [9] (0.67 uM in lysate) were 0.93 and 0.98, respectively. Moreover, the figures for the “Relative Intensity, Erk2 (MAPK1)” value in assay [10] (0.074 uM in lysate) and in assay [10] (0.67 uM in lysate) were 0.89 and 0.98, respectively.
